Numbered stars: 1 amine (or outer) side, 2 acyl side, 3 side chain; on linkers, the order of the positions; unused ones are H or OH. Bridge positions count the residues as written; N and C are the ends. Square brackets hold non-standard residues; d marks the D form. Peptide text beside a SMILES is read from it. * marks the point of attachment. ξ: configuration not given here. Phe(3-CF3) = N[C@@H](Cc1cccc(C(F)(F)F)c1)C(=O)O; Phe(4-COOH) = N[C@@H](Cc1ccc(C(=O)O)cc1)C(=O)O; Bip = N[C@@H](Cc1ccc(-c2ccccc2)cc1)C(=O)O; d(βAsp) = O=C(O)[C@@H](CC(=O)[*:2])N[*:1]; NH(CH2)14COOH = O=C(O)CCCCCCCCCCCCCCN*; Phe(3-Me) = Cc1cccc(C[C@H](N)C(=O)O)c1; γGlu = O=C(O)[C@H](CCC(=O)[*:2])N[*:1]; βAsp = O=C(O)[C@H](CC(=O)[*:2])N[*:1]; NH(CH2)12COOH = O=C(O)CCCCCCCCCCCCN*; Val(3-OH) = CC(C)(O)[C@H](N)C(=O)O; Cha = N[C@@H](CC1CCCCC1)C(=O)O; Ile(3ξ) = CCC(C)[C@H](N)C(=O)O; Thr(3ξ) = CC(O)[C@H](N)C(=O)O; Carboxymethyl = O=C(O)C*; Orn = NCCC[C@H](N)C(=O)O; Dab = NCC[C@H](N)C(=O)O; AEEA = NCCOCCOCC(=O)O; ξC = NC(CS)C(=O)O

T1 sequence (Q15116 25-288): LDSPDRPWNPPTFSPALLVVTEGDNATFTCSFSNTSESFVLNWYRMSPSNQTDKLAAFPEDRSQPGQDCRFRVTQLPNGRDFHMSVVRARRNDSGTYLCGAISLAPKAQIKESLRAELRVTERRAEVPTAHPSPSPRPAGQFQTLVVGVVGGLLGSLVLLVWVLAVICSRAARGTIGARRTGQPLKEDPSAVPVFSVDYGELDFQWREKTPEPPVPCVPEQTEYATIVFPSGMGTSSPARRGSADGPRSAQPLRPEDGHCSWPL

This assay addresses T1, PD-1/PD-L1 interaction (PE-labeled human PD-L1-Ig binding to Jurkat cell line over-expressing human PD-1) (Homo sapiens, UniProt Q15116).
T1 construct: expressed in transfected cells; host or cells: Jurkat
The assay can be described thus: Jurkat-PD-1 Cell Binding High-Content Screening Assay (CBA). The settings on record: Jurkat cell line over-expressing human PD-1; PE-labeled PD-L1-Ig 20 nM final; read-out: Jurkat hPD1-PDL1 IC50. The assay is classed as cell-based. Summed up:
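Binding of fluorescent PD-L1-Ig (phycoerythrin on Ig tag, 20 nM final, 1 h) measured by high-content imaging of fixed, Hoechst-counterstained Jurkat-hPD-1 cells. Compound added 2 h at 37° C beforehand, in DMEM with 10% fetal calf serum.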
With `CC(=O)NCCCC[C@@H]1NC(=O)[C@H](C(C)(C)O)NC(=O)[C@H](CC2CCCCC2)NC(=O)[C@H](CCN)NC(=O)[C@@H](CC(C)C)NC(=O)[C@H](CCCN)NC(=O)[C@H](CCC(N)=O)NC(=O)[C@H](Cc2ccc(-c3ccccc3)cc2)NC(=O)[C@H](Cc2ccc(OCC(=O)O)cc2)NC(=O)[C@H](Cc2cccc(C(F)(F)F)c2)NC(=O)[C@H](CC(=O)O)NC(=O)[C@H](Cc2ccc(OCC(=O)O)cc2)NC(=O)[C@H](Cc2ccc(OCC(=O)O)cc2)NC(=O)CSC[C@@H](C(=O)N[C@@H](CCN)C(=O)NCCCCCCCCCCCCCCC(=O)O)NC1=O` [Compound 3875] ({CH2CO}-Y(Carboxymethyl)Y(Carboxymethyl)D[Phe(3-CF3)]Y(Carboxymethyl)[Bip]Q[Orn][dL][Dab][Cha][Val(3-OH)]K(Ac)C[Dab]-{NH(CH2)14COOH}; thioether N-14), the IC50 – broadly, the concentration needed to halve the response being measured – was determined as 147 nM.
With `Cc1cccc(C[C@@H]2NC(=O)[C@H](CC(=O)O)NC(=O)[C@H](Cc3ccc(OCC(=O)O)cc3)NC(=O)[C@H](CC(C)C)NC(=O)CSC[C@@H](C(=O)N[C@@H](CCN)C(=O)NCCOCCOCC(=O)N[C@H](CC(=O)NCCOCCOCC(=O)NCCCCCCCCCCCCC(=O)O)C(=O)O)NC(=O)[C@H](CCC(=O)O)NC(=O)[C@H](C(C)(C)O)NC(=O)[C@H](CC3CCCCC3)NC(=O)[C@H](CCN)NC(=O)[C@@H](CC(C)C)NC(=O)[C@H](CCCN)NC(=O)[C@H](Cc3ccc(OCC(=O)O)cc3)NC(=O)[C@H](Cc3ccc(-c4ccccc4)cc3)NC(=O)[C@H](Cc3ccc(OCC(=O)O)cc3)NC2=O)c1` [Compound 3877] ({CH2CO}-LY(Carboxymethyl)D[Phe(3-Me)]Y(Carboxymethyl)[Bip]Y(Carboxymethyl)[Orn][dL][Dab][Cha][Val(3-OH)]EC[Dab][AEEA][d(βAsp)][AEEA]-{NH(CH2)12COOH}; thioether N-14) the figure was 26.3 nM.
The value for `CC(=O)NCCCC[C@@H]1NC(=O)[C@H](C(C)(C)O)NC(=O)[C@H](CC2CCCCC2)NC(=O)[C@H](CCN)NC(=O)[C@@H](CC(C)C)NC(=O)[C@H](CCCN)NC(=O)[C@H](CCC(N)=O)NC(=O)[C@H](Cc2ccc(-c3ccccc3)cc2)NC(=O)[C@H](Cc2ccc(C(=O)O)cc2)NC(=O)[C@H](Cc2cccc(C(F)(F)F)c2)NC(=O)[C@H](CC(=O)O)NC(=O)[C@H](Cc2ccc(OCC(=O)O)cc2)NC(=O)[C@H](Cc2ccc(OCC(=O)O)cc2)NC(=O)CSC[C@@H](C(=O)N[C@@H](CCN)C(=O)NCCCCCCCCCCCCC(=O)O)NC1=O` [Compound 3881] ({CH2CO}-Y(Carboxymethyl)Y(Carboxymethyl)D[Phe(3-CF3)][Phe(4-COOH)][Bip]Q[Orn][dL][Dab][Cha][Val(3-OH)]K(Ac)C[Dab]-{NH(CH2)12COOH}; thioether N-14) was 24.5 nM.
As to `Cc1cccc(C[C@@H]2NC(=O)[C@H](CC(=O)O)NC(=O)[C@H](Cc3ccc(OCC(=O)O)cc3)NC(=O)[C@H](C(C)O)NC(=O)CSCC(C(=O)N[C@@H](CCN)C(=O)NCCCCCCCCCCCCC(=O)O)NC(=O)[C@H](CO)NC(=O)[C@H](C(C)(C)O)NC(=O)[C@H](CC3CCCCC3)NC(=O)[C@H](CCN)NC(=O)[C@@H](CC(C)C)NC(=O)[C@H](CCCN)NC(=O)[C@H](CCCNC(=N)N)NC(=O)[C@H](Cc3ccc(-c4ccccc4)cc3)NC(=O)[C@H](Cc3ccc(O)cc3)NC2=O)c1` (stereo partly drawn) [Compound 3882] ({CH2CO}-[Thr(3ξ)]Y(Carboxymethyl)D[Phe(3-Me)]Y[Bip]R[Orn][dL][Dab][Cha][Val(3-OH)]S[ξC][Dab]-{NH(CH2)12COOH}; thioether N-14), the IC50 amounted to 26.8 nM.
The value for `Cc1cccc(C[C@@H]2NC(=O)[C@H](CC(=O)O)NC(=O)[C@H](Cc3ccc(C(=O)O)cc3)NC(=O)[C@H](C)NC(=O)CSC[C@@H](C(=O)N[C@@H](CCN)C(=O)NCCOCCOCC(=O)N[C@@H](CCC(=O)O)C(=O)N[C@@H](CC(=O)NCCOCCOCC(=O)NCCCCCCCCCCCCCCC(=O)O)C(=O)O)NC(=O)[C@H](Cc3cnc[nH]3)NC(=O)[C@H](C(C)(C)O)NC(=O)[C@H](CC3CCCCC3)NC(=O)[C@H](CCN)NC(=O)[C@@H](CC(C)C)NC(=O)[C@H](CCCN)NC(=O)[C@H](Cc3ccc(C(=O)O)cc3)NC(=O)[C@H](Cc3ccc(-c4ccccc4)cc3)NC(=O)[C@H](Cc3ccc(C(=O)O)cc3)NC2=O)c1` [Compound 3884] ({CH2CO}-A[Phe(4-COOH)]D[Phe(3-Me)][Phe(4-COOH)][Bip][Phe(4-COOH)][Orn][dL][Dab][Cha][Val(3-OH)]HC[Dab][AEEA]E[βAsp][AEEA]-{NH(CH2)14COOH}; thioether N-14) was 147 nM; that for `CCC(C)[C@@H]1NC(=O)[C@H](Cc2ccc(-c3ccccc3)cc2)NC(=O)[C@H](C(C)C)NC(=O)[C@H](Cc2c[nH]c3ccccc23)NC(=O)[C@H](CC(=O)O)NC(=O)[C@H](Cc2ccc(OCC(=O)O)cc2)NC(=O)[C@H](Cc2ccc(OCC(=O)O)cc2)NC(=O)CSC[C@@H](C(=O)N[C@H](C)C(=O)NCCOCCOCC(=O)NCCCCCCCCCCCCCCC(=O)O)NC(=O)[C@H](CCCNC(=N)N)NC(=O)[C@H](C(C)(C)O)NC(=O)[C@H](CC2CCCCC2)NC(=O)[C@H](CCN)NC(=O)[C@@H](CC(C)C)NC(=O)[C@H](CCCN)NC1=O` (stereo partly drawn) [Compound 3886] ({CH2CO}-Y(Carboxymethyl)Y(Carboxymethyl)DWV[Bip][Ile(3ξ)][Orn][dL][Dab][Cha][Val(3-OH)]RC[dA][AEEA]-{NH(CH2)14COOH}; thioether N-14) was 202 nM.
With `Cc1cccc(C[C@@H]2NC(=O)[C@H](CC(=O)O)NC(=O)[C@H](Cc3ccc(C(=O)O)cc3)NC(=O)[C@H](CCCN)NC(=O)CSC[C@@H](C(=O)N[C@@H](CCN)C(=O)NCCOCCOCC(=O)NCCOCCOCC(=O)N[C@@H](CCC(=O)O)C(=O)N[C@@H](CC(=O)NCCCCCCCCCCCCCCC(=O)O)C(=O)O)NC(=O)[C@H](Cc3cnc[nH]3)NC(=O)[C@H](C(C)(C)O)NC(=O)[C@H](CC3CCCCC3)NC(=O)[C@H](CCN)NC(=O)[C@@H](CC(C)C)NC(=O)[C@H](CCCN)NC(=O)[C@H](Cc3ccc(C(=O)O)cc3)NC(=O)[C@H](Cc3ccc(-c4ccccc4)cc3)NC(=O)[C@H](Cc3ccc(C(=O)O)cc3)NC2=O)c1` [Compound 3887] ({CH2CO}-[Orn][Phe(4-COOH)]D[Phe(3-Me)][Phe(4-COOH)][Bip][Phe(4-COOH)][Orn][dL][Dab][Cha][Val(3-OH)]HC[Dab][AEEA][AEEA]ED(NH(CH2)14COOH)-OH; thioether N-14) the figure was 56.3 nM.
The value for `CC(=O)NCCCC[C@@H]1NC(=O)[C@H](C(C)(C)O)NC(=O)[C@H](CC2CCCCC2)NC(=O)[C@H](CCN)NC(=O)[C@@H](CC(C)C)NC(=O)[C@H](CCCN)NC(=O)[C@H](Cc2ccc(C(=O)O)cc2)NC(=O)[C@H](Cc2ccc(-c3ccccc3)cc2)NC(=O)[C@H](Cc2ccc(C(=O)O)cc2)NC(=O)[C@H](Cc2cccc(C(F)(F)F)c2)NC(=O)[C@H](CC(=O)O)NC(=O)[C@H](Cc2ccc(OCC(=O)O)cc2)NC(=O)[C@H](Cc2cnc[nH]2)NC(=O)CSC[C@@H](C(=O)N[C@@H](CCN)C(=O)NCCOCCOCC(=O)N[C@@H](CC(=O)N[C@@H](CC(=O)O)C(=O)NCCCCCCCCCCCCCCC(=O)O)C(=O)O)NC1=O` [Compound 3888] ({CH2CO}-HY(Carboxymethyl)D[Phe(3-CF3)][Phe(4-COOH)][Bip][Phe(4-COOH)][Orn][dL][Dab][Cha][Val(3-OH)]K(Ac)C[Dab][AEEA][βAsp]D-{NH(CH2)14COOH}; thioether N-14) was 116 nM; that for `CC(C)C[C@H]1NC(=O)[C@H](CCCN)NC(=O)[C@H](Cc2ccc(C(=O)O)cc2)NC(=O)[C@H](Cc2ccc(-c3ccccc3)cc2)NC(=O)[C@H](Cc2ccc(C(=O)O)cc2)NC(=O)[C@H](Cc2cccc(C(F)(F)F)c2)NC(=O)[C@H](CC(=O)O)NC(=O)[C@H](Cc2ccc(OCC(=O)O)cc2)NC(=O)[C@H](Cc2cnc[nH]2)NC(=O)CSC[C@@H](C(=O)N[C@@H](CCN)C(=O)NCCOCCOCC(=O)N[C@@H](CC(=O)N[C@@H](CC(=O)O)C(=O)NCCCCCCCCCCCCCCC(=O)O)C(=O)O)NC(=O)[C@H](CCC(=O)O)NC(=O)[C@H](C(C)(C)O)NC(=O)[C@H](CC2CCCCC2)NC(=O)[C@H](CCN)NC1=O` [Compound 3889] ({CH2CO}-HY(Carboxymethyl)D[Phe(3-CF3)][Phe(4-COOH)][Bip][Phe(4-COOH)][Orn][dL][Dab][Cha][Val(3-OH)]EC[Dab][AEEA][βAsp]D-{NH(CH2)14COOH}; thioether N-14) was 272 nM.
In the case of `CC(C)C[C@H]1NC(=O)[C@H](CCCN)NC(=O)[C@H](Cc2ccc(C(=O)O)cc2)NC(=O)[C@H](Cc2ccc(-c3ccccc3)cc2)NC(=O)[C@H](Cc2ccc(C(=O)O)cc2)NC(=O)[C@H](Cc2cccc(C(F)(F)F)c2)NC(=O)[C@H](CC(=O)O)NC(=O)[C@H](Cc2ccc(OCC(=O)O)cc2)NC(=O)[C@H](C(C)C)NC(=O)CSC[C@@H](C(=O)N[C@@H](CCN)C(=O)NCCOCCOCC(=O)N[C@@H](CCC(=O)O)C(=O)N[C@@H](CCC(=O)NCCCCCCCCCCCCCCC(=O)O)C(=O)O)NC(=O)[C@H](CC(=O)O)NC(=O)[C@H](C(C)(C)O)NC(=O)[C@H](CC2CCCCC2)NC(=O)[C@H](CCN)NC1=O` [Compound 3890] ({CH2CO}-VY(Carboxymethyl)D[Phe(3-CF3)][Phe(4-COOH)][Bip][Phe(4-COOH)][Orn][dL][Dab][Cha][Val(3-OH)]DC[Dab][AEEA]EE(NH(CH2)14COOH)-OH; thioether N-14), the half-maximal inhibitory concentration (IC50) stood at 434 nM.
With `Cc1cccc(C[C@@H]2NC(=O)[C@H](CC(=O)O)NC(=O)[C@H](Cc3ccc(OCC(=O)O)cc3)NC(=O)[C@H](CC(C)C)NC(=O)CSC[C@@H](C(=O)N[C@@H](CCN)C(=O)NCCOCCOCC(=O)N[C@@H](CCC(=O)O)C(=O)N[C@@H](CCC(=O)NCCOCCOCC(=O)NCCCCCCCCCCCCCCC(=O)O)C(=O)O)NC(=O)[C@H](CC(=O)O)NC(=O)[C@H](C(C)(C)O)NC(=O)[C@H](CC3CCCCC3)NC(=O)[C@H](CCN)NC(=O)[C@@H](CC(C)C)NC(=O)[C@H](CCCN)NC(=O)[C@H](Cc3ccc(C(=O)O)cc3)NC(=O)[C@H](Cc3ccc(-c4ccccc4)cc3)NC(=O)[C@H](Cc3ccc(C(=O)O)cc3)NC2=O)c1` [Compound 3892] ({CH2CO}-LY(Carboxymethyl)D[Phe(3-Me)][Phe(4-COOH)][Bip][Phe(4-COOH)][Orn][dL][Dab][Cha][Val(3-OH)]DC[Dab][AEEA]E[γGlu][AEEA]-{NH(CH2)14COOH}; thioether N-14) the figure was 388 nM.

The values above are taken from patent publication US20260022142A1, “MACROCYCLIC IMMUNOMODULATORS” (Bristol-Myers Squibb Company, priority 2022, published 2026).
